Measurements from patent publication US20260234188A1, “CHEMOKINE-BINDING PEPTIDES” (Oxford University Innovation Limited, priority 2022, published 2026).
Entries after “also recorded” stand apart in the source; their conditions may differ.

What was measured:
[1] = tested on: panel of 24 biotinylated chemokines; assay: Phage-display screen of HD2 NNK saturation mutagenesis library; assay type: binding, human; conditions: for Chemokines Bound log2E 1-5 / Chemokines Bound log2E > 5: HD2 saturation mutants, chemokines on streptavidin beads, UniProt entry names; for peak log 2 E: best mutation at each residue
Description: (§1) FIG. 7. Exemplar results from phage display screens using saturation mutagenesis. A phage-display library was constructed using the HD2 sequence, replacing each residue encoding codon with the degenerate sequence NNK. The 16 degenerate sequences (which also encoded the parental HD2 sequence) were pooled and cloned into display phage. […] Exemplar peptides were selected such that log 2 E for at least one chemokine was greater than 5, and log 2 E for binding to control (CO5, was less than zero). […] The fold enrichment of parental HD2 is also indicated.
as §1, with “A” for “FIG. 7. Exemplar results from phage display screens using saturation mutagenesis. A”
A molecular level understanding of binding mechanism is needed for development of peptides as therapeutics and is usually obtained from structural analyses. As HD2 binds many chemokines this becomes a challenging task, and we explored if we could elucidate this using phage display mutagenesis. The role of each residue in HD2 for binding was examined in phage-display. A library of HD2 mutations that had NNK substituted at each residue and performed phage-display selection against a panel of 24 biotinylated chemokines, in parallel, as described in Example 7. This strategy allowed us to evaluate the impact not only of Ala substitutions, but also conservative, hydrophilic and hydrophobic substitutions, and compare with binding of parental HD2 which is also included in the library. Ala substitution removes side-chains beyond the β-carbon and can be used to infer the role of side-chain functional groups without affecting conformational flexibility of the backbone. […] These residues are within the two motifs identified previously. Other notable residues identified were Y8 and P10. We next judged the impact of Ala mutation by calculating the change in log 2 E (Δlog 2 E) between the mutant and parental HD2. A positive value of Δlog 2 E indicates increased binding, and a negative value decreased binding compared to parental HD2. […] As may be seen, the log 2 E for the parental HD2 was ~0 in these analyses indicating lack of enrichment.
Oligonucleotide pools were amplified using primers: oligo_fwd: 5′-[…] and oligo_rev2: 5′-tcgtcaccctcggcgcctcctcoggatcctccacc. Oligonucleotide PCR products were cloned into plasmid prSTOP4Nsi using NEB Builder HiFi Assembly following instructions of the manufacturer. The vector pool was used to transform electrocompetent Invitrogen ElectroMAX™ DH5α-E™ cells. Plasmid DNA was harvested by MaxiPrep (GeneJet Plasmid Maxiprep Kit) and was transformed into SS320 phage display electrocompetent cells (Lucigen), following the manufacturer's protocol, resuspended in 950 μL recovery media for each electroporation, transferred to 50 mL Falcon tubes, 100 μL 1011 CFU/mL M13KO7 helper phage (NEB) added and shaken at 37° C., 220 RPM for 1 h. 1 mL recovery culture was added to 2YT medium containing +50 ug/mL carbenicillin and 25 ug/mL kanamycin, and grown overnight at 37C, 220 rpm. Phage was precipitated from the culture supernatant by adding 22.5 mL of supernatant to 4.5 mL 20% PEG 8000/2.5 M NaCl, incubating on ice for 30 min, and centrifuging at 10,000 RPM, 4° C. for 10 min, and resuspending phage in 1 ml of PBT, followed by centrifugation at 13000 RPM, 4° C., for 10 min. […]

[2] = tested on: panel of 25 biotinylated chemokines (15 CC-class chemokines, 10 CXC-class chemokines); assay: Phage-display screen of HD845 NNK mutagenesis library; assay type: binding, human; conditions: for peak log 2 E: best mutation at each residue
Protocol: NNK mutagenesis library construction and screening was performed for the HD845 peptide using the methods described in Example 19. […] Following library selection with each chemokine, the enrichment (E) of each peptide was calculated in comparison to the input library, and expressed the enrichment as log 2 E, as this metric is correlated with binding affinity.
A two-pronged strategy was used to identify individual peptides with mutations that improve chemokine binding over the parental peptide HD845. To identify mutations that improve overall chemokine binding affinity, the best performing mutations were selected at each residue by their enhancement of mean log 2 E (FIG. 27A). To add in mutations that improve chemokine binding diversity, the best performing mutations at each residue were identified by their enhancement of peak log 2 E (FIG. 27B).

Sequence	Chemokines Bound log2E 1-5 [1]	Chemokines Bound log2E > 5 [1]	further results
DEDDYTAYAPLTCYFT [E1D]			mean log 2 E compared to parental HD2 ([1]; over all chemokines): enhancement over the parental that was not statistically significant
EDDDYTAYAPLTCYFT [E2D]			mean log 2 E compared to parental HD2 ([1]; over all chemokines): enhancement over the parental that was not statistically significant
EDEDYEDFFAPVTCYF [K10A]			peak log 2 E [2]: highest peak log 2 E at that residue; mean log 2 E compared to parental HD845 ([2]; over CC chemokines): significant improvement; mean log 2 E compared to parental HD845 ([2]; over all chemokines): significant improvement
EDEDYFDFFKPVTCYF [E6F]			mean log 2 E compared to parental HD845 ([2]; over CC chemokines): significant improvement
EDEDYWDFFKPVTCYF [E6W]			peak log 2 E [2]: highest peak log 2 E at that residue; mean log 2 E compared to parental HD845 ([2]; over XC chemokines): significant improvement; mean log 2 E compared to parental HD845 ([2]; over all chemokines): significant improvement
EEDDYEAYAPLTCYFT [HD2_E6]	CCL1, CCL11, CCL15, CCL17,; also recorded: CCL18, CCL19, CCL2, CCL22,; also recorded: CCL28, CCL3, CCL4, CCL5, CCL8,; also recorded: X3CL1, CXL10, CXL11, CXL14	SDF1, CXL13	
EEDDYSAYAPLTCYFT [HD2_S6]	CCL11, CCL15, CCL17, CCL18,; also recorded: CCL2, CCL22, CCL4, CCL5, CCL8,; also recorded: X3CL1, CXL10, SDF1, CXL13, IL8	CCL1, CCL3	
EEDDYTAYADLTCYFT [HD2_D1C]		CXL11	peak log 2 E [1]: highest peak log 2 E at that residue
EEDDYTAYAPFTCYFT [HD2_F11]	CCL18, CXL11, CXL13, CXL14	CCL20	
EEDDYTAYAPLHCYFT [HD2_H12]	CCL15, CCL28, CCL4, CCL5	CCL22	
EEDDYTAYAPLICYFT [HD2_112]	CCL18, CCL25, CCL28, CCL4,; also recorded: X3CL1, CXL10, SDF1, CXL13,; also recorded: CXL14	CCL19	peak log 2 E [1]: highest peak log 2 E at that residue
EEDDYTAYAPLTCYFD [HD2_D16]	CCL1, CCL11, CCL17, CCL18,; also recorded: CCL2, CCL22, CCL3, CCL4, CCL5,; also recorded: CCL8, X3CL1, CXL10, CXL11,; also recorded: CXL13, CXL14	SDF1	
EEDDYTAYAPLTSYFT [HD901]			effect on Δlog 2 E ([1]; conservative residue substitutions (Dayhoff PAM250), mutant versus parental HD2): significant deleterious effect
EEDDYTAYAPLVCYFT [HD2_V12]	CCL18, CCL25, CCL28, CCL4,; also recorded: CCL8, X3CL1, CXL10, SDF1,; also recorded: CXL13, CXL14	CCL19	
EEDDYTAYAPQTCYFT [HD2_Q11]	CCL1, CCL11, CCL15, CCL18,; also recorded: CCL22, CCL4, CCL5, CCL8	CCL17	
EEDDYTAYAPTTCYFT [HD2_T11]	CCL11, CCL17, CCL18, CCL22,; also recorded: CCL4, CCL5, CCL8	CCL15	
EEDDYTAYAPVTCYFT [HD2_V11]	CCL1, CCL11, CCL15, CCL18,; also recorded: CCL2, CCL22, CCL28, CCL3,; also recorded: CCL4, CCL5, CCL8, CXL10,; also recorded: CXL11, CXL13	CCL17	
EEDDYTAYAPYTCYFT [HD2_Y11]	CCL1, CCL11, CCL15, CCL17,; also recorded: CCL18, CCL19, CCL2, CCL20,; also recorded: CCL3, CCL4, CCL5, CCL8, X3CL1,; also recorded: CXL11, CXL13, CXL14	CCL22	
EEDDYTDYAPLTCYFT [HD2_D7]	CCL1, CCL11, CCL15, CCL17, and CCL18, CCL19, CCL2, CCL22, and CCL28, CCL3, CCL4, CCL5, CCL8, and X3CL1, CXL10, CXL11, CXL14, and IL8	SDF1, CXL13	mean log 2 E compared to parental HD2 ([1]; over all chemokines): significant improvement
EEDDYTEYAPLTCYFT [HD2_E7]	CCL1, CCL11, CCL15, CCL18,; also recorded: CCL2, CCL22, CCL28, CCL3,; also recorded: CCL4, CCL5, CCL8, X3CL1,; also recorded: CXL10, CXL14, IL8	SDF1, CXL13	
EEDDYTWYAPLTCYFT [A7W]			mean log 2 E compared to parental HD2 ([1]; over XC (CXC/CX3C) chemokines): significant improvement
EEEDYTAYAPLTCYFT [HD2_E3]	CCL8, X3CL1; also recorded: CCL1, CCL11, CCL15, CCL17,; also recorded: CCL18, CCL22, CCL4, CCL5,	CCL3	
